Laboratory results reported in article PMC12150326 (The Journal of Organic Chemistry, 2025).
Where two headings read alike, the source gives them in different places.

Legend:
[1] = cited from earlier work
[2] = molecular target: colchicine site of bovine brain tubulin; format: binding; settings: for Kd: tubulin binding constant, 25 °C, read-out: Kd
Procedure: Inhibition of this fluorescence increase was measured and converted to K d for the test compound as described.

[3] = test system: bovine brain tubulin; assay: Tubulin polymerization inhibition; format: biochemical; settings: 10 μM tubulin; for Polymerization Inhibition (%) 3.3 μM: 3.3 μM compound; for Polymerization Inhibition (%) 33 μM: 33 μM compound
Procedure: Inhibition of tubulin polymerization was determined as described previously. In brief, 10 μM bovine brain tubulin (PurSolutions, LLC (puresoluble.com)) was incubated under conditions strongly promoting polymerization of tubulin (1 M NaGlutamate, 0.1 M Mes (Morpholinoethanesulfonic acid), 1 mM MgCl2, 0.5 mM GTP, pH 6.9), in the absence or presence of 3.3 or 33 μM test compound, incubated for 30 min at 37 °C, then centrifuged at 100,000g for 8 min, and the top 3/4 of the supernatant removed. Protein concentration was measured, and polymerization was determined as pelletable protein lost from the supernatant.

[4] = test system: A549; assay: Cell-growth inhibition (CellTiter); format: cell-based, human; settings: Homo sapiens, A549, 72 h, read-out: Cell Growth Inhibition GI50 ± SE
Procedure: (§1) Inhibition of cell growth was determined by using standard procedures. Cell lines were obtained from the NCI anticancer drug screen and maintained in DMEM medium supplemented with 10% fetal bovine serum. Growing cells were exposed to serial dilutions of each compound for 3 days. Cell growth was determined with CellTiter Assay Reagent (Promega), and growth parameters, including inhibition of growth, were measured by using the methods specified by the manufacturer.

[5] = test system: M14; assay: Cell-growth inhibition (CellTiter); format: cell-based, human; settings: Homo sapiens, M14, 72 h, read-out: Cell Growth Inhibition GI50 ± SE
Procedure: as §1

[6] = test system: PC3; assay: Cell-growth inhibition (CellTiter); format: cell-based, human; settings: Homo sapiens, PC-3, 72 h, read-out: Cell Growth Inhibition GI50 ± SE
Procedure: as §1

[7] = Experimental rotational energy barrier (thermal racemization, chiral HPLC); format: physicochemical
Procedure: (aR)-6 and (aS)-6 were readily separable from one another and racemic iso -6 through the use of a polysaccharide-based chiral column (Diacel IA column) fitted to an automated medium-pressure liquid chromatography unit (Biotage Isolera Prime). Racemization was observable after heating a solution of either enantiopure (aR)- or (aS)-6 at 135 °C in xylenes over a few hours, and the rate of enantiomerization was extrapolated using the Eyring equation (ΔG ^‡ = 31.2 ± 0.3 kcal/mol). (aR)- and (aS )-iso-6 were separable in an analogous fashion using a chiral IC polysaccharide column. […] Thus, we can project that the rotational energy barrier is […] 37 kcal/mol. However, a computationally determined rotational barrier for iso -6 was 33.5 kcal/mol, which is roughly 3 kcal/mol more than that calculated for 6. One potential explanation for this notable difference in configurational stability is the greater double bond character of the methyl-bearing C^4–C^5 carbon of iso -6 in comparison to the C^5–C^6 in 6, as this would both shorten and rigidify this steric-bearing bond (see Scheme A/B for details). […] Studies have previously described differences in rotational barriers of DAAC (2) and its analogous isomer that, while less dramatic, are consistent with this trend (ΔG ^‡ = 22.1 vs 23.4 kcal/mol). […]
IV. Experimental Profiling of Dihedral Angles
Rotational Energy Barrier Determination. A small spatula tip (~0.2 mg) of either (aR)-6 (aka, (aR)-MT-MTC) or (aS)-6 (aka, (aS)-MT-MTC) was diluted in 2 mL o-xylenes in a large vial containing a stir bar. The solution was heated to 135 °C open to air (temperature set to 135 °C, but fluxuated between 134 and 138 °C).
~100 µL aliquots were extracted from solution using a syringe fitted with a long disposable needle at various time intervals and diluted into automated sample vials containing 500 µL CH2Cl2 to rapidly cool. These samples were monitored on Agilent with an analytical HPLC IA column, using 0 – 40% iPrOH in Hexanes gradient over 30 minutes at a flow rate of 0.5 mL/min, and a pressure of roughly 5 bar). Samples eluted approximately 20 minutes into run, with (aR)-6 eluting first, followed by (aS)-6. Three separate runs were carried out, two of which monitored racemization of (aS)-6, and one of which monitored racemization of (aR)- […]
Integration of the HPLC traces were used to determine enantiomeric excess by calculating the difference between the two enantiomers and dividing that by the sum of the two enantiomers, and then multiplying that […]
provided a slope (corresponding to kracemization), and dividing this number […] providing kenantiomerization (or kent in equation below), with units inverse seconds. A summary of data follows (Table S5), and representative chromatograms illustrated in section VI.

Row | SMILES | Kd [2] | Polymerization Inhibition (%) 3.3 μM [3] | Polymerization Inhibition (%) 33 μM [3] | GI50 ([4]; A549, 3 days) | GI50 ([5]; M14, 3 days) | GI50 ([6]; PC3, 3 days) | further results
1 | COc1cc2c(c(OC)c1OC)-c1ccc(OC)c(=O)cc1CCC2 [compound 2, desacetamidocolchicine] | – | – | – | – | – | – | ΔG‡ exp, rotational barrier [1]: 22.1 kcal/mol; t1/2 rt of racemization ([1]; room temperature ref 19): ~ 0.5 h
2 | COc1ccc(-c2ccc(OC)c(=O)cc2)c(OC)c1OC [compound 3, 2-methoxy-5-(2,3,4-trimethoxyphenyl)-2,4,6-cycloheptatrien-1-one, reference compound] | 3200 nM | 100% | 100% | – | – | – | GI50 [4]: 30 ± 1 nM; GI50 [5]: 30 ± 7 nM; GI50 [6]: 30 ± 5 nM
3 | COc1ccc(-c2ccc(OC)c(=O)cc2C)c(OC)c1OC [compound 4, 2-Methoxy-6-methyl-5-(2,3,4-trimethoxyphenyl)cyclohepta-2,4,6-trien-1-one] | 20000 nM | 0% | 100% | 300 ± 10 nM | 250 ± 25 nM | 190 ± 60 nM | binding constant fold less potent than 3 [2]: 5–30 fold
4 | COc1cc(C)c(-c2ccc(OC)c(=O)cc2)c(OC)c1OC [compound 5, 2-Methoxy-5-(2,3,4-trimethoxy-6-methylphenyl)cyclohepta-2,4,6-trien-1-one] | 14000 nM | 0% | 100% | 300 ± 10 nM | 300 ± 10 nM | 220 ± 40 nM | binding constant fold less potent than 3 [2]: 5–30 fold
5 | COc1cc(C)c(-c2ccc(OC)c(=O)cc2C)c(OC)c1OC [compound 6, 2-Methoxy-6-methyl-5-(2,3,4-trimethoxy-6-methylphenyl)cyclohepta-2,4,6-trien-1-one] | – | – | – | – | – | – | ΔG‡ of enantiomerization, experimental ([7]; 135 °C in xylenes, Eyring equation): 31.2 ± 0.3 kcal/mol
6 | COc1ccc(-c2ccc(=O)c(OC)cc2C)c(OC)c1OC [iso-4] | 230000 nM | 0% | 0% | > 3000 nM | > 3000 nM | > 3000 nM | –
7 | COc1cc(C)c(-c2ccc(=O)c(OC)cc2C)c(OC)c1OC [iso-6, 2-Methoxy-4-methyl-5-(2,3,4-trimethoxy-6-methylphenyl)cyclohepta-2,4,6-trien-1-one] | – | – | – | – | – | – | racemization on heating ([7]; 145 °C for 10 h): no racemization was observed; projected rotational energy barrier ([7]; from absence of racemization at 145 °C, 10 h): 37 kcal/mol
